Data reported in patent publication US20110250629A1, “ALCOHOL PRODUCTION PROCESS” (Lanza Tech New Zealand Limited, priority 2009, published 2011).

Key:
[1] = tested on: Clostridium autoethanogenum DSM23693; details: 37° C., PETC medium
Experimental: The ethanol tolerance of Clostridium autoethanogenum DSM23693 was tested in serum bottles (FIG. 5). Ethanol was added in various concentrations to an active growing culture at 37° C. in PETC medium (Tab. 1) with 30 psi steel mill gas as substrate (approx 48% CO, 32% N2, 2% H2, and 18% CO2). Ethanol concentrations were confirmed by HPLC analysis using an Agilent 1100 Series HPLC system equipped with a RID operated at 35° C. (Refractive Index Detector) and an Alltech IOA-2000 Organic acid column (150×6.5 mm, particle size 5 μm) kept at 60° C. Slightly acidified water was used (0.005 M H2SO4) as mobile phase with a flow rate of 0.7 ml/min. To remove proteins and other cell residues, 400 μl samples were mixed with 100 μl of a 2% (w/v) 5-Sulfosalicylic acid and centrifuged at 14,000×g for 3 min to separate precipitated residues. 10 μl of the supernatant were then injected into the HPLC for analyses.

[2] = tested on: Clostridium autoethanogenum; details: fermentation broth
[3] = tested on: Clostridium thermocellum; details: cited from earlier work

In the case of `CCO` [ethanol, Ethanol], the “microbial biomass reached over a 24 hour period” value ([1]; 20 g/L ethanol added, 30 psi steel mill gas, start approx 0.2 g/L biomass, no-added-ethanol culture reached approx 0.85 g/L) is reported as 0.45 g/L, the “ethanol concentration at which growth was found to be inhibited” value ([1]; serum bottles) is reported as 10-20 g/l and the “concentration over which growth rate is partially inhibited and productivity decreases” value [2] is reported as 20 to 40 g/L. For the same molecule, the “concentration over which metabolism and growth rate are substantially slowed” value [2] was 40 to 50 g/L, the “ethanol concentration in which the micro-organism can still thrive” value ([3]; after strain selection) was “up to 8%” and the “ethanol concentration inhibitory to growth” value ([3]; unselected strain) was “above 1%”.
